Experimental data: the NIST ThermoML archive (doi:10.1021/je800934r)

Test: mn = molality of the nth substance listed, in mol/kg
Settings: 101 kPa, Liquid; for viscosity: Capillary tube (Ostwald / Ubbelohde) method; for speed of sound: Pulse-echo method; for mass density: Vibrating tube method

CCCCCCCCCCCCc1ccccc1S(=O)(=O)[O-].[Na+] [sodium dodecylbenzenesulfonate (ILL DEFINED!)] + O
Settings	mass density, 298.15 K [kg/m3]	mass density, 308.15 K [kg/m3]	speed of sound, 298.15 K [m/s]	speed of sound, 308.15 K [m/s]	viscosity, 298.15 K [mPa·s]	viscosity, 308.15 K [mPa·s]
m1 = 0.05	999.92	996.76	1498.7	1522.7	0.999	0.795
m1 = 0.1	1002.75	999.44	1500	1523.5	1.106	0.868
